In brackets after ≈: the same amount, converted by molar mass. Entries after “also recorded” stand apart in the source; their conditions may differ.
Legend:
[1] = test system: totally blind subjects diagnosed with non-24; conditions: cited from earlier work
[2] = Intrinsic dissolution studies in water; format: physicochemical; conditions: 37° C., 150 r.p.m., compressed disk
Procedure: Example 23 Intrinsic Dissolution Studies
200 mg of crystal form I or crystal form II was taken in the intrinsic attachment and compressed to a 1.33 cm^2 and 0.1 cm thick of disk using a hydraulic press at a pressure of 9 MPa for 60 s. The intrinsic attachment was placed in a jar of 100 mL of water to 37° C. and rotated at 150 r.p.m. 1 milliliter of the aliquot each is collected at specific time intervals and blank medium of the same volume and temperature is added, and the absorbance at max (281 nm) is measured, and the cumulative dissolution rate is calculated to plot the concentration-time standard curves of the respective compounds.

[3] = Solubility in water at 37° C. (equilibrium solubility, 72 hours, absorbance at 281 nm); format: physicochemical; conditions: balanced for 72 hours
Procedure: Example 22 Solubility in Water at 37° C.
Move 25 ml water into a 50 ml eggplant bottle separately, add crystal form I and crystal form II Tasimelteon separately, stir in a constant temperature oil bath to balance for 72 hours, and then filtrate by 0.45 microporous membrane. The filtrate is diluted by water. The water solubilities of crystal form I and crystal form II at 37° C. were determined by calculating each sample concentration of its saturated solution determined through measuring absorbance at λmax (281 nm). Standard curve method is used to calculate the equilibrium solubility.

[4] = Thermogravimetric analysis (TGA), thermal stability; format: physicochemical; conditions: for thermal stability: result in words
Procedure: Thermogravimetric Analysis (TGA)
TGA was performed on a TA instruments SDT Q600 thermogravimetric analyzer. The samples were heated over the temperature range room temperature of 30-365° C. at a constant heating rate of 10° C./min. The samples were purged with a stream of flowing nitrogen at 120 ml/min throughout the experiment.

intrinsic dissolution rate ([2]; FIG. 9, listed as form I)	solubility at 72 h ([3]; 37 °C, thermodynamic from solid)	thermal stability [4]	water solubility [3]	decomposition temperature (TGA) ([4]; heating rate of 10° C./min, nitrogen)	Compound	proportion of individuals becoming entrained to the 24-hour cycle ([1]; physiologic monitoring, compared with placebo)	efficacy on nighttime wakefulness and daytime napping ([1]; totally blind subjects diagnosed with non-24)	intrinsic dissolution rate ([2]; FIG. 9)
					CCC(=O)NC[C@@H]1C[C@H]1c1cccc2c1CCO2 [Tasimelteon, (1R-2R)—N-[2-(2,3-dihydrobenzofuran-4-yl)cyclopropylmethyl]propanamide]	higher proportion of individuals becoming entrained to the 24-hour cycle compared with placebo	reducing both nighttime wakefulness and daytime napping	
good dissolution rate	81 µg/mL (≈ 330 µM)	good thermal stability			CCC(=O)NC[C@@H]1C[C@H]1c1cccc2c1CCO2 [crystal form I, (1R-2R)—N-[2-(2,3-dihydrobenzofuran-4-yl)cyclopropylmethyl]propanamide]			high
		good thermal stability	104 µg/mL (≈ 424 µM)	approximately 200 °C	CCC(=O)NC[C@@H]1C[C@H]1c1cccc2c1CCO2 [crystal form II, (1R-2R)—N-[2-(2,3-dihydrobenzofuran-4-yl)cyclopropylmethyl]propanamide]			high in water, especially for crystal form II compared to crystal form I; also recorded: good dissolution rate, especially for crystal form II compared to form I

From patent publication US10654820B2, “Crystal form of tasimelteon” (ZHEJIANG JINGXIN PHARMACEUTICAL CO., LTD., priority 2016, dated 2020)
